This is an account of results in the Kinase Knowledgebase extract (Sharma et al. 2016).

ROCK2 (human), sequence (O75116 whole entry, looked up): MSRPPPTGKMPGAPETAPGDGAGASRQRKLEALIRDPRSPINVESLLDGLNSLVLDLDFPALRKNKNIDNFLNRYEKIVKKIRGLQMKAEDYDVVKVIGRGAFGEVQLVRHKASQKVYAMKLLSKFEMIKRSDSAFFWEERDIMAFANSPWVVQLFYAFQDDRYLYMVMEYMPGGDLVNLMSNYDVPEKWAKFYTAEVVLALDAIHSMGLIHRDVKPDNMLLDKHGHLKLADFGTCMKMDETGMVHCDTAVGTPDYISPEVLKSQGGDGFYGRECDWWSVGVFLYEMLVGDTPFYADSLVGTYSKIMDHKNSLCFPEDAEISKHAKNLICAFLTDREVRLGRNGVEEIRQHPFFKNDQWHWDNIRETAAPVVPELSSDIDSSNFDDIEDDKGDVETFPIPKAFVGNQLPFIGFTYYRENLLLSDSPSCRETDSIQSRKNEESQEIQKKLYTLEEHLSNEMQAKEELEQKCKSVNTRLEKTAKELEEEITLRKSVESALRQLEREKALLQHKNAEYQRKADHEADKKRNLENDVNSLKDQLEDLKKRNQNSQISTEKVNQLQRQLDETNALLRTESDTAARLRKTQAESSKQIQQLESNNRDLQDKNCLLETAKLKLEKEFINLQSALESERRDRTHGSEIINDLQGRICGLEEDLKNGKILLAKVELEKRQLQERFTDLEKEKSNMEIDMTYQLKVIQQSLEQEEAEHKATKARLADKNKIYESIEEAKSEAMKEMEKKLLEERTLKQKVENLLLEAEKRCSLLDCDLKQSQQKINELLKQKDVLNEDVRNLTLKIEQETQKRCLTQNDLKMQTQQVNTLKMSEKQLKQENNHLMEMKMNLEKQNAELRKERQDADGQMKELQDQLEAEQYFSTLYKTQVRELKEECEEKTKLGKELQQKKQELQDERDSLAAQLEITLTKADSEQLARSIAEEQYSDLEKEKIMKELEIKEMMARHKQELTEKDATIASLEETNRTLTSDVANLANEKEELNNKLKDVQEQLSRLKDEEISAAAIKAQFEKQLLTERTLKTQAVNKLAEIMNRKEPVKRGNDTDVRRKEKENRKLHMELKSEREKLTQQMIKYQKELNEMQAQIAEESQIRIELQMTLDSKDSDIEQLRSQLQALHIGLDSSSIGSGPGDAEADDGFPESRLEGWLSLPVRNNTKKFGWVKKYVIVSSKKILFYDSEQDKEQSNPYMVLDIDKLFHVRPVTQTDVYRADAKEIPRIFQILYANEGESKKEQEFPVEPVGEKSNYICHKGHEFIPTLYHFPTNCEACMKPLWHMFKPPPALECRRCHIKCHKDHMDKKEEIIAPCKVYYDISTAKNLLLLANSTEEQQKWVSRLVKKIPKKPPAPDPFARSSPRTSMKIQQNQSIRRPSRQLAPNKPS

This experiment concerns the target ROCK2 (human) (UniProt O75116). Kind of experiment: Inhibition of ROCK2 Kinase Activity.
Molecule `CN(CC(N)c1ccc(C(=O)Nc2ccncc2)cc1)C(=O)Cc1ccc(Cl)cc1Cl` (stereo not given) returned an IC50 of 500 to 5000 nM. As for `NC(c1ccc(C(=O)Nc2ccncc2)cc1)C1CCCN1C(=O)Cc1cc(F)cc(F)c1` (stereo not given), the figure is 500 to 5000 nM; as for `CC(C)(NC(=O)CC(N)c1ccc(C(=O)Nc2ccncc2)cc1)c1ccc(Cl)cc1` (stereo not given), 50 to 500 nM.

Regarding `NC(CNC(=O)c1nccc2ccccc12)c1ccc(C(=O)Nc2ccncc2)cc1` (stereo not given), the IC50 lay in the range of 500 to 5000 nM. `NC(CNC(=O)Nc1ccc(F)cc1)c1ccc(C(=O)Nc2ccncc2)cc1` (stereo not given) came in with a half-inhibitory concentration (IC50) of 50 to 500 nM. On to `COc1ccc(CCNC(=O)CC(N)c2ccc(C(=O)Nc3ccncc3)cc2)cc1OC` (stereo not given), for which the IC50 lay in the range of 500 to 5000 nM. Consider `NC(CC(=O)NC(c1ccccc1)c1ccc(Cl)cc1)c1ccc(C(=O)Nc2ccncc2)cc1` (stereo not given), for which the half-maximal inhibitory concentration (IC50) fell in the range of 50 to 500 nM.

On to `NC(CNC(=O)c1ccc2ccccc2n1)c1ccc(C(=O)Nc2ccncc2)cc1` (stereo not given), for which the IC50 was in the range of 50 to 500 nM. As for `NC(CNC(=O)NC1CCCC1)c1ccc(C(=O)Nc2ccncc2)cc1` (stereo not given), the figure is 500 to 5000 nM; as for `NC(CC(=O)NC1CCN(Cc2ccccc2)CC1)c1ccc(C(=O)Nc2ccncc2)cc1` (stereo not given), 50 to 500 nM; as for `COc1ccc(CCNC(=O)CC(N)c2ccc(C(=O)Nc3ccncc3)cc2)cc1` (stereo not given), 50 to 500 nM. The molecule `NC(c1ccc(C(=O)Nc2ccncc2)cc1)C1CCCN1C(=O)C1(c2ccc(F)c(F)c2)CC1` (stereo not given) came in with an IC50 of 500 to 5000 nM. With `CC(C)(C(=O)NCC(N)c1ccc(C(=O)Nc2ccncc2)cc1)c1ccc(Cl)cc1F` (stereo not given) the figure was 50 to 500 nM; with `COc1ccc(CC(=O)N(C)CC(N)c2ccc(C(=O)Nc3ccncc3)cc2)cc1F` (stereo not given), 500 to 5000 nM; with `NC(CNC(=O)C1CCC1)c1ccc(C(=O)Nc2ccncc2)cc1` (stereo not given), 500 to 5000 nM.

`COc1ccc(CNC(=O)CC(N)c2ccc(C(=O)Nc3ccncc3)cc2)cc1OC` (stereo not given) had an IC50 of 50 to 500 nM. In turn, `NC(CNC(=O)c1ccc2c(c1)OCO2)c1ccc(C(=O)Nc2ccncc2)cc1` (stereo not given) yielded an IC50 of 50 to 500 nM. As for `CC(C)(C(=O)N1CCCC1C(N)c1ccc(C(=O)Nc2ccncc2)cc1)c1ccc(F)cc1` (stereo not given), the figure is 500 to 5000 nM; as for `CN(CC(N)c1ccc(C(=O)Nc2ccncc2)cc1)C(=O)Cc1cccc(F)c1F` (stereo not given), 500 to 5000 nM. As for `COc1cccc(C(=O)NCC(N)c2ccc(C(=O)Nc3ccncc3)cc2)c1` (stereo not given), the figure is 500 to 5000 nM; as for `CCC(C)C(=O)NCC(N)c1ccc(C(=O)Nc2ccncc2)cc1` (stereo not given), 500 to 5000 nM. As for `NC(CNC(=O)CCC1CCCCC1)c1ccc(C(=O)Nc2ccncc2)cc1` (stereo not given), the figure is 50 to 500 nM; as for `NC(CNC(=O)c1ccoc1)c1ccc(C(=O)Nc2ccncc2)cc1` (stereo not given), 50 to 500 nM; as for `CN(CC(N)c1ccc(C(=O)Nc2ccncc2)cc1)C(=O)Cc1ccc(Br)cc1` (stereo not given), 500 to 5000 nM.

For `NC(c1ccc(C(=O)Nc2ccncc2)cc1)C1CCCN1C(=O)C1(c2ccc(F)cc2)CCCC1` (stereo not given), the IC50 fell in the range of 500 to 5000 nM. As for `CS(=O)(=O)NCCNC(=O)CC(N)c1ccc(C(=O)Nc2ccncc2)cc1` (stereo not given), the figure is 50 to 500 nM; as for `NC(CC(=O)N(CCc1ccccc1)Cc1ccccc1)c1ccc(C(=O)Nc2ccncc2)cc1` (stereo not given), 50 to 500 nM.

Regarding `NC(CC(=O)NCc1ccc(F)c(C(F)(F)F)c1)c1ccc(C(=O)Nc2ccncc2)cc1` (stereo not given), the concentration for half-maximal inhibition (IC50) was in the range of 50 to 500 nM. With `NC(CC(=O)NCc1ccc(OC(F)(F)F)cc1)c1ccc(C(=O)Nc2ccncc2)cc1` (stereo not given) the figure was 50 to 500 nM.

As for `NC(CC(=O)NCc1cc(Cl)cc(Cl)c1)c1ccc(C(=O)Nc2ccncc2)cc1` (stereo not given), the IC50 is 50 to 500 nM.

`NC(CNC(=O)CSc1ncccn1)c1ccc(C(=O)Nc2ccncc2)cc1` (stereo not given) yielded a concentration for half-maximal inhibition (IC50) of 500 to 5000 nM. In turn, `NC(CNC(=O)NC1CCCCC1)c1ccc(C(=O)Nc2ccncc2)cc1` (stereo not given) registered a half-maximal inhibitory concentration (IC50) of 500 to 5000 nM. Turning to `COc1ccccc1CC(=O)N(C)CC(N)c1ccc(C(=O)Nc2ccncc2)cc1` (stereo not given), the half-maximal inhibitory concentration (IC50) fell in the range of 500 to 5000 nM. For the molecule `NC(CNC(=O)Cc1ccc(F)cc1)c1ccc(C(=O)Nc2ccncc2)cc1` (stereo not given), the IC50 lay within 50 to 500 nM. In the case of `NC(c1ccc(C(=O)Nc2ccncc2)cc1)C1CCCN1C(=O)Cc1ccc(F)cc1Cl` (stereo not given), the IC50 was in the range of 500 to 5000 nM. In turn, `NC(CNC(=O)c1ccncc1)c1ccc(C(=O)Nc2ccncc2)cc1` (stereo not given) yielded an IC50 of 500 to 5000 nM. `NC(CNC(=O)Cc1cccs1)c1ccc(C(=O)Nc2ccncc2)cc1` (stereo not given): the 50% inhibitory concentration (IC50) lay within 50 to 500 nM. As for `CC(C)(C)NC(=O)NCC(N)c1ccc(C(=O)Nc2ccncc2)cc1` (stereo not given), the figure is 500 to 5000 nM.

Take `Cc1ccc(CC(=O)N2CCCC2C(N)c2ccc(C(=O)Nc3ccncc3)cc2)cc1` (stereo not given): the IC50 fell in the range of 500 to 5000 nM. As for `COc1ccc(NC(=S)NCC(N)c2ccc(C(=O)Nc3ccncc3)cc2)cc1` (stereo not given), the concentration for half-maximal inhibition (IC50) was in the range of 500 to 5000 nM. As to `NC(c1ccc(C(=O)Nc2ccncc2)cc1)C1CCCN1C(=O)Cc1cc(F)ccc1F` (stereo not given), the IC50 was in the range of 500 to 5000 nM. `CN(CC(N)c1ccc(C(=O)Nc2ccncc2)cc1)C(=O)Cc1ccc(F)cc1F` (stereo not given): the concentration for half-maximal inhibition (IC50) was in the range of 500 to 5000 nM. With `NC(CC(=O)NC1Cc2ccccc2C1)c1ccc(C(=O)Nc2ccncc2)cc1` (stereo not given) the figure was 50 to 500 nM; with `CN(CC(N)c1ccc(C(=O)Nc2ccncc2)cc1)C(=O)C1CCOc2ccc(Cl)cc21` (stereo not given), 500 to 5000 nM. As for `NC(c1ccc(C(=O)Nc2ccncc2)cc1)C1CCCN1C(=O)Cc1ccc2ccccc2c1` (stereo not given), the figure is 500 to 5000 nM. The molecule `COc1ccc(CNC(=O)NCC(N)c2ccc(C(=O)Nc3ccncc3)cc2)cc1` (stereo not given) gave an IC50 of 50 to 500 nM. Regarding `NC(CNC(=O)c1ccc([N+](=O)[O-])o1)c1ccc(C(=O)Nc2ccncc2)cc1` (stereo not given), the IC50 was in the range of 500 to 5000 nM. As for `NC(c1ccc(C(=O)Nc2ccncc2)cc1)C1CCCN1C(=O)Cc1cccc(Cl)c1` (stereo not given), the figure is 500 to 5000 nM; as for `NC(CC(=O)NCCc1ccccc1Cl)c1ccc(C(=O)Nc2ccncc2)cc1` (stereo not given), 50 to 500 nM; as for `Cc1ccccc1CNC(=O)NCC(N)c1ccc(C(=O)Nc2ccncc2)cc1` (stereo not given), 50 to 500 nM.

Consider `CC(C)(C)c1ccc(NC(=S)NCC(N)c2ccc(C(=O)Nc3ccncc3)cc2)cc1` (stereo not given), for which the IC50 lay within 500 to 5000 nM. `NC(c1ccc(C(=O)Nc2ccncc2)cc1)C1CCCN1C(=O)C1CCc2cc(F)ccc21` (stereo not given) registered an IC50 of 500 to 5000 nM. As to `NC(CC(=O)NCC1CCCO1)c1ccc(C(=O)Nc2ccncc2)cc1` (stereo not given), the concentration for half-maximal inhibition (IC50) is 50 to 500 nM. With `NC(c1ccc(C(=O)Nc2ccncc2)cc1)C1CCCN1C(=O)C1(c2ccc(F)cc2)CCC1` (stereo not given) the figure was 500 to 5000 nM.

In the case of `COc1ccc(CC(=O)NCC(N)c2ccc(C(=O)Nc3ccncc3)cc2)cc1F` (stereo not given), the concentration for half-maximal inhibition (IC50) was in the range of 50 to 500 nM.

`NC(CC(=O)NCc1cccs1)c1ccc(C(=O)Nc2ccncc2)cc1` (stereo not given): the IC50 was in the range of 50 to 500 nM. In the case of `NC(c1ccc(C(=O)Nc2ccncc2)cc1)C1CCCN1C(=O)C1CCCc2ccccc21` (stereo not given), the half-maximal inhibitory concentration (IC50) fell in the range of 500 to 5000 nM. `CN(CC(N)c1ccc(C(=O)Nc2ccncc2)cc1)C(=O)C(C)(C)c1ccc(F)c(F)c1` (stereo not given) came in with an IC50 of 500 to 5000 nM.

`NC(c1ccc(C(=O)Nc2ccncc2)cc1)C1CCCN1C(=O)C1(c2ccc(Cl)cc2)CCCC1` (stereo not given) registered a concentration for half-maximal inhibition (IC50) of 500 to 5000 nM. Turning to `COc1cccc2cc(C(=O)NCC(N)c3ccc(C(=O)Nc4ccncc4)cc3)oc12` (stereo not given), the IC50 fell in the range of 50 to 500 nM. As for `NC(CNC(=O)Nc1ccc(Cl)cc1)c1ccc(C(=O)Nc2ccncc2)cc1` (stereo not given), the figure is 50 to 500 nM; as for `Cc1ccc(C(=O)NCC(N)c2ccc(C(=O)Nc3ccncc3)cc2)s1` (stereo not given), 500 to 5000 nM; as for `Cc1ccc(CC(=O)N(C)CC(N)c2ccc(C(=O)Nc3ccncc3)cc2)cc1` (stereo not given), 500 to 5000 nM. For `NC(CNC(=O)CCc1ccccc1)c1ccc(C(=O)Nc2ccncc2)cc1` (stereo not given), the IC50 fell in the range of 50 to 500 nM. Turning to `Cc1cccc(C(=O)NCC(N)c2ccc(C(=O)Nc3ccncc3)cc2)c1` (stereo not given), the IC50 lay in the range of 500 to 5000 nM.
